Measured values as given in US20060252798A1, “Metal ion chelators and therapeutic use thereof” (priority 2003, published 2006).
Where “and” joins values, the source holds several entries; their conditions need not be identical. Identical values can stand only once. Like-named read-outs stand apart in the source and are kept apart here. Blank lines part the entries; values can stand above or below the compound they belong to.

What was measured:
[1] = tested on: SK-N-MC neuroepithelioma cells; experiment: 3H-thymidine incorporation by SK-N-MC cells; format: cell-based, human; conditions: 20 h incubation then 2 h label; Mean ± SD, 4 experiments
Method: (§1) After a 20 h incubation of the SK-N-MC cells with a selection of analogues, ^3H-thymidine, ^3H-leucine, or ^3H-uridine (1 μCi/ml) was added for 2 h at 37° C. The cells were detached from the 96 well plate using 1 mM EDTA in Ca(II)/Mg(II)-free PBS and collected and washed using a cell harvester (Tomtec Harvester 96, Linbrook, Queensland, Australia). Radioactivity was measured on a P-scintillation counter (LKB Wallace, Turku, Finland).

[2] = tested on: SK-N-MC neuroepithelioma cells; experiment: MTT cellular proliferation assay, SK-N-MC; format: cell-based, human
Method: […] […] After this incubation, 0.01 mL of MTT was added to each well and the plates incubated for 2 h at 37° C. The cells were then solubilised by adding 0.1 mL of 10% SDS-50% isobutanol in 0.01 M HCl and the plates then read at 570 nm on a scanning multiwell spectrophotometer (Titertek Multiscan; Beckman Instruments Inc, California). MTT colour formation was directly proportional to the number of viable cells.
The effect of the compounds on the proliferation of SK-N-MC neuroepithelioma cells was examined using the MTT assay (described above).
(§2) Dp2mT served as a negative control.

[3] = tested on: SK-N-MC neuroepithelioma cells; experiment: 59Fe uptake from 59Fe-transferrin by SK-N-MC neuroepithelioma cells; format: cell-based, human
Method: The cells were then placed on ice and washed four times with ice-cold Hank's balanced salt solution (BSS) to remove non-specifically bound ^59Fe-Tf. Cells were then incubated with the general protease, pronase (1 mg/ml), for 30 min at 4° C. to remove membrane-bound ^59Fe and Tf.
PCTH was used as an internal control.

[4] = tested on: SK-N-MC neuroepithelioma cells; experiment: 3H-uridine incorporation by SK-N-MC cells; format: cell-based, human; conditions: 20 h incubation then 2 h label; Mean ± SD, 3 experiments
Method: as §1

MRC-5 fibroblasts = experiment: MTT cellular proliferation assay, MRC-5 fibroblasts; format: cell-based, human
Method: (§3) The final concentration of the compounds was 0.39-50 μM. […] […] After this incubation, 0.01 mL of MTT was added to each well and the plates incubated for 2 h at 37° C. The cells were then solubilised by adding 0.1 mL of 10% SDS-50% isobutanol in 0.01 M HCl and the plates then read at 570 nm on a scanning multiwell spectrophotometer (Titertek Multiscan; Beckman Instruments Inc, California). MTT colour formation was directly proportional to the number of viable cells.
The MRC-5 cell type is a normal human lung fibroblast cell strain that is mortal and senesces after a number of passages in vitro. The SK-N-MC neuroepithelioma cell type is immortal.
as §2

[5] = tested on: SK-N-MC neuroepithelioma cells; experiment: 59Fe mobilization from prelabelled SK-N-MC neuroepithelioma cells; format: cell-based, human
Method: The effect of chelators on ^59Fe release from prelabelled cells was studied using standard procedures.^18 Cells were prelabelled with ^59Fe-transferrin (0.75 μM) for 3 h at 37° C. […] The overlying medium was then removed and placed into γ-counting tubes. The cells were removed from the petri dishes in 1 ml of BSS using a plastic spatula and transferred to a separate set of γ-counting tubes.
The ability of the compounds to mobilise ^59Fe from SK-N-MC neuroepithelioma cells was assessed after a 3 h labelling period with ^59Fe-Tf (0.75 μM) at 37° C. […]
DFO and 311 were used as internal standards.

GADD45 and WAF1 mRNA = experiment: Northern blot of WAF1 and GADD45 mRNA expression in SK-N-MC cells; format: cell-based, human; conditions: DFO 100 μM, other chelators 25 μM, 20 h at 37° C. (FIG. 7)
Method: FIG. 7. […] Northern blotting was performed using standard procedures (see Example 6).
Northern blot analysis was performed by isolating total RNA using the Total RNA Isolation Reagent (Advanced Biotechnologies Ltd, Surrey, United Kingdom). The membranes were hybridised with probes specific for human WAF1, GADD45, and β-actin. The WAF1 probe consisted of a 1 kb fragment from pSXV (ATCC; Cat. No. 79928). The GADD45 probe consisted of a 760 bp fragment from human GADD45 cDNA cloned into pHu145B2 (kindly supplied by Dr. Albert Fornace, National Cancer Institute, NIH, Maryland). The β-actin probe consisted of a 1.4 kb fragment from human β-actin cDNA cloned into pBluescript SK− (ATCC; Cat. No. 37997).

[6] = tested on: SK-N-MC neuroepithelioma cells; experiment: 3H-leucine incorporation by SK-N-MC cells; format: cell-based, human; conditions: 20 h incubation then 2 h label; Mean ± SD, 4 experiments
Method: as §1

Ndrg1 = Ndrg1 expression in MCF-7 cells (Western blotting); format: cell-based, human; conditions: 25 μM, 24 h, MCF-7 cells (FIG. 16)
Method: FIG. 16. […] The expression of Ndrg1 and β-actin protein levels were assessed by Western blotting.
MCF-7 cells were incubated for 24 h with a range of metal ion chelators. […] Dp2mT was used as a negative control, […]

[7] = tested on: MCF-7 breast cancer cells; experiment: MTT cellular proliferation assay, MCF-7; format: cell-based, human
Method: […] […] […] After this incubation, 0.01 mL of MTT was added to each well and the plates incubated for 2 h at 37° C. The cells were then solubilised by adding 0.1 mL of 10% SDS-50% isobutanol in 0.01 M HCl and the plates then read at 570 nm on a scanning multiwell spectrophotometer (Titertek Multiscan; Beckman Instruments Inc, California). MTT colour formation was directly proportional to the number of viable cells.
as §2
(§4) Dp2mT served as a negative control as the methyl group at the 2-position hinders Fe-chelation.

SK-Mel-28 melanoma cells = experiment: MTT cellular proliferation assay, SK-Mel-28; format: cell-based, human
Method: as §3, §2, §4

IMR-32 Neuroblastoma = experiment: MTT cellular proliferation assay, IMR-32; format: cell-based; conditions: Homo sapiens, IMR-32, 0-50 μM, 72 h, 1 experiment
Method: as §3
(§5) At the end of the incubation period, cell density was determined by the MTT assay (described above).

HEP G2 Hepatoma = experiment: MTT cellular proliferation assay, HEP G2; format: cell-based; conditions: Homo sapiens, HepG2, 0-50 μM, 72 h, 1 experiment
Method: as §3, §5

DU 145 prostate cancer = experiment: MTT cellular proliferation assay, DU 145; format: cell-based; conditions: Homo sapiens, DU-145, 0-50 μM, 72 h, 2 experiments
Method: as §3, §5

H69AR lung cancer = experiment: MTT cellular proliferation assay, H69AR; format: cell-based; conditions: Homo sapiens, H69AR, 0-50 μM, 72 h, 1 experiment
Method: as §3, §5

NCI H2452 mesothelioma = experiment: MTT cellular proliferation assay, NCI H2452; format: cell-based; conditions: Homo sapiens, NCI-H2452, 0-50 μM, 72 h, 3 experiments
Method: as §3, §5

[8] = Table 2, MTT assay, 90 h incubation, Mean ± SD, 4 experiments, read-out: IC50 Values of Chelators
[9] = Homo sapiens, SK-N-MC, 90 h, Table 2, MTT assay, 90 h incubation, Mean ± SD, 4 experiments, read-out: IC50 Values of Chelators
[10] = Homo sapiens, MRC5, Example 4c, FIG. 6, read-out: IC50 values in fibroblasts
[11] = Homo sapiens, MCF7, values given in Example 8 text, read-out: IC50, anti-proliferative activity in MCF-7 cells
[12] = Table 3, 72 h, MTT, mean ± SD, read-out: IC50 MCF-7 breast cancer
[13] = Table 3, 0-25 μM, 72 h, MTT, mean ± SD, read-out: IC50 SK-N-MC neuroepithelioma
[14] = Table 3, normal cells, 72 h, MTT, read-out: IC50 MRC-5 fibroblasts

Compound: 2-quinolinecarboxaldehyde 2-thiophenecarboxaldehyde hydrazone [QCTH]
3H-Thymidine Incorporation [1]: 83 ± 6 % Control
IC50 [2, 8]: > 50 µM

IC50 [2, 9]: > 50 µM
Compound: Nc1ccc(C(=O)NN=Cc2ccc3ccccc3n2)cc1 [QCAH, 2-quinolinecarboxaldehyde 4-aminobenzoyl hydrazone]
3H-Thymidine Incorporation [1]: 43 ± 2 % Control

IC50 [2, 9]: > 50 µM
Compound: O=C(NN=Cc1ccc2ccccc2n1)c1ccc(O)cc1 [QCHH, 2-quinolinecarboxaldehyde 4-hydroxybenzoyl hydrazone]
3H-Thymidine Incorporation [1]: 41 ± 2 % Control

IC50 [2, 8]: 3 ± 1 µM
Compound: O=C(NN=C(c1ccccn1)c1ccccn1)c1ccccc1 [PKBH, di-2-pyridylketone benzoyl hydrazone]
3H-Thymidine Incorporation [1]: 0.03 ± 0.01 % Control
prevention of 59Fe uptake as a function of concentration ([3]; 0.5-50 μM, 3 h, PCTH internal control (FIG. 5B)): higher efficacy than the control PCTH
3H-Uridine Incorporation [4]: 5 ± 1 % Control
IC50 (MRC-5 fibroblasts; [10]): 11 µM
59Fe mobilisation as a function of concentration ([5]; 0.5-50 μM, 3 h, PCTH internal control (FIG. 5A)): more effective than PCTH
GADD45 and WAF1 mRNA expression (GADD45 and WAF1 mRNA): pronounced effect
3H-Leucine Incorporation [6]: 21 ± 2 % Control

IC50 [2, 9]: 49 ± 3 µM
Compound: O=C(NN=Cc1ccc2ccccc2n1)c1cccc(Br)c1 [QCBBH, 2-quinolinecarboxaldehyde 3-bromobenzoyl hydrazone]
3H-Thymidine Incorporation [1]: 81 ± 10 % Control

IC50 [2, 9]: 49 ± 3 µM
Compound: O=C(NN=Cc1ccc2ccccc2n1)c1ccncc1 [QCIH, 2-quinolinecarboxaldehyde isonicotinoyl hydrazone]
3H-Thymidine Incorporation [1]: 77 ± 9.5 % Control
59Fe mobilisation from prelabelled cells ([5]; DFO 100 μM, other chelators 50 μM, 3 h (FIG. 3)): comparable cellular ^59Fe mobilisation to PCIH

IC50 [7, 11]: > 250 µM
Compound: O=C(O)CN(CCN(CC(=O)O)CC(=O)O)CC(=O)O [EDTA, ethylenediamine tetraacetic acid]
up-regulation of Ndrg1 (Ndrg1): no effect

IC50 [2, 8]: 48 ± 4 µM
Compound: 2-pyridylketone 2-thiophenecarboxaldehyde hydrazone [PCTH]
3H-Thymidine Incorporation [1]: 64 ± 14 % Control
3H-Uridine Incorporation [4]: 43 ± 2 % Control
cellular 59Fe released ([5]; chelator 1 μM, 3 h reincubation at 37° C. (FIG. 5A)): 10%
3H-Leucine Incorporation [6]: 21 ± 6 % Control

IC50 [2, 9]: 50 ± 1 µM
Compound: O=C(NN=Cc1ccc2ccccc2n1)c1ccccc1 [QCBH, 2-quinolinecarboxaldehyde benzoyl hydrazone]
3H-Thymidine Incorporation [1]: 64 ± 5 % Control

IC50 [2, 8]: 1 ± 1 µM
Compound: O=C(NN=C(c1ccccn1)c1ccccn1)c1cccc(Br)c1 [PKBBH, di-2-pyridylketone 3-bromobenzoyl hydrazone]
3H-Thymidine Incorporation [1]: 0.02 % Control and 0.02 ± 0.01 % Control
3H-Uridine Incorporation [4]: 3 ± 1 % Control
IC50 (MRC-5 fibroblasts; [10]): 8 µM
GADD45 and WAF1 mRNA expression (GADD45 and WAF1 mRNA): pronounced effect
3H-Leucine Incorporation [6]: 8 ± 1 % Control

IC50 (SK-Mel-28 melanoma cells; Homo sapiens, SK-MEL-28, 72 h, Table 3, mean ± SD): 0.35 ± 0.09 µM
IC50 (IMR-32 Neuroblastoma): 0.01 µM
IC50 (HEP G2 Hepatoma): 2.61 µM
IC50 ([7]; Homo sapiens, MCF7, 72 h, Table 3, 72 h, MTT, mean ± SD, read-out: IC50 MCF-7 breast cancer): 0.6 ± 0.2 µM
IC50 ([2]; Homo sapiens, SK-N-MC, 72 h, Table 3, 0-25 μM, 72 h, MTT, mean ± SD, read-out: IC50 SK-N-MC neuroepithelioma): 0.02 µM
IC50 (DU 145 prostate cancer): 0.09 µM
IC50 (H69AR lung cancer): 0.39 µM
Compound: COc1cccc2c1C(=O)c1c(O)c3c(c(O)c1C2=O)C[C@@](O)(C(=O)CO)C[C@@H]3O[C@H]1C[C@H](N)[C@H](O)[C@H](C)O1 [Dox, doxorubicin]
IC50 (NCI H2452 mesothelioma): 0.17 µM

IC50 [2, 8]: 40 ± 12 µM
Compound: O=C(NN=C(c1ccccn1)c1ccccn1)c1cccc(Br)c1 [PCBBH, 2-pyridylketone 3-bromobenzoyl hydrazone]
GADD45 and WAF1 mRNA expression (GADD45 and WAF1 mRNA): up-regulation

Compound: c1ccc(-c2ccccn2)nc1 [dipyridyl]
up-regulation of Ndrg1 (Ndrg1): no effect
IC50 ([7]; Homo sapiens, MCF7, read-out: IC50, anti-proliferative activity in MCF-7 cells): > 250 µM

IC50 (SK-Mel-28 melanoma cells; Table 3, 72 h, mean ± SD): 1.4 ± 0.4 µM
IC50 [7, 12]: 0.9 ± 0.4 µM
IC50 [2, 13]: 0.8 ± 0.2 µM
Compound: O=C(NN=Cc1c(O)ccc2ccccc12)c1cccnc1 [311m, 2-hydroxy-1-naphthylaldehyde nicotinoyl hydrazone]
IC50 (MRC-5 fibroblasts; [14]): > 25 µM

Compound: CC(C)(S)[C@@H](N)C(=O)O [penicillamine]
up-regulation of Ndrg1 (Ndrg1): no effect

IC50 (SK-Mel-28 melanoma cells; Table 3, 72 h, mean ± SD): > 25 µM
IC50 [7, 12]: > 25 µM
IC50 [2, 13]: > 25 µM
Compound: CN(N=C(c1ccccn1)c1ccccn1)C(N)=S [Dp2mT, di-2-pyridylketone 2-methyl-3-thiosemicarbazone]
up-regulation of Ndrg1 (Ndrg1): no effect
prevention of 59Fe uptake from 59Fe-Tf ([3]; 25 μM, 3 h at 37° C. (FIG. 11B)): little effect
IC50 (MRC-5 fibroblasts; [14]): > 25 µM

IC50 [7, 11]: 180 µM
Compound: Cc1c(O)c(=O)ccn1C [L1, deferiprone]
up-regulation of Ndrg1 (Ndrg1): no effect

IC50 [2, 8]: 46 ± 7 µM
Compound: O=C(NN=C(c1ccccn1)c1ccccn1)c1ccccc1 [PCBH, 2-pyridylketone benzoyl hydrazone]
3H-Thymidine Incorporation [1]: 72 ± 16 % Control
3H-Uridine Incorporation [4]: 31 ± 9 % Control
GADD45 and WAF1 mRNA expression (GADD45 and WAF1 mRNA): little effect
3H-Leucine Incorporation [6]: 30 ± 13 % Control
